Common to all, as to format: cell-based
Assay [1] relates to A121 (Human ovarian). Briefly: cytotoxic effect on A121 tumour cell line (comparison with taxol). The following applies: exposure time 72 h, RPMI 1640 + 20 mM HEPES + 2 mM L-glutamine. As to the method: (§1) The products of the present invention were screened for their cytotoxic effect on different tumour cell lines, comparing their action with that of taxol.
(§2) Standard conditions: substrate RPMI 1640 + 20 mM HEPES + 2 mM Lglutamine.

Assay [2] concerns L1210 (murine leukemia). Briefly: cytotoxic effect on L1210 tumour cell line (comparison with taxol). The settings on record: exposure time 48 h, RPMI 1640 + 20 mM HEPES + 2 mM L-glutamine. As to the method:
as §1, §2

Assay [3] deals with MCF7-ADR (resistant). Kind of assay: cytotoxic effect on MCF7-ADR resistant tumour cell line (comparison with taxol). The following applies: exposure time 72 h, RPMI 1640 + 20 mM HEPES + 2 mM L-glutamine. As to the method: as §1, §2
Assay [4] has as its system MCF7 (Human breast). Briefly: cytotoxic effect on MCF7 tumour cell line (comparison with taxol). The following applies: exposure time 72 h, RPMI 1640 + 20 mM HEPES + 2 mM L-glutamine. As to the method: as §1, §2
Assay [5] relates to A549 (Human NSCLC). Briefly: cytotoxic effect on A549 tumour cell line (comparison with taxol). The following applies: exposure time 72 h, RPMI 1640 + 20 mM HEPES + 2 mM L-glutamine. The protocol: as §1, §2
Assay [6] concerns HT-29 (Human colon). Briefly: cytotoxic effect on HT-29 tumour cell line (comparison with taxol). The settings on record: exposure time 72 h, RPMI 1640 + 20 mM HEPES + 2 mM L-glutamine. As to the method:
as §1, §2

As to “13-[(2R, 3S)-3-phenyl-2-hydroxy-3-tert-butoxycarbonylamino-propanoyl]-10-deacetyl-11,12-dihydrobaccatine III [1b]”, the concentration for half-maximal inhibition (IC50) in assay [1] was determined as 1.6 ± 0.2 nM; in assay [2] it was 32 ± 0.1 nM; in assay [3] it was 128 ± 6.2 nM; in assay [4] it was 0.8 ± 0.2 nM; in assay [5], 2.1 ± 0.3 nM; in assay [6] it was 3.6 ± 0.4 nM.

Take `CC(=O)O[C@@]12CO[C@@H]1C[C@H](O)[C@@]1(C)C(=O)[C@@H](O)C3=C(C)[C@@H](OC(=O)[C@H](O)[C@@H](NC(=O)OC(C)(C)C)c4ccccc4)C[C@@](O)([C@@H](OC(=O)c4ccccc4)[C@H]21)C3(C)C` [1a, 13-[(2R, 3S)-3-phenyl-2-hydroxy-3-tert-butoxycarbonylamino-propanoyl]-10-epi-10-deacetylbaccatine III]: the IC50 was determined as 2.8 ± 0.3 nM in assay [1]; 46 ± 2.1 nM in assay [2] (Mus musculus); 130 ± 2.2 nM in assay [3] (Homo sapiens, NCI/ADR-RES); 2.2 ± 0.2 nM in assay [4]; 6.9 ± 0.3 nM in assay [5]; 3.4 ± 0.1 nM in assay [6].

In the case of `CC(=O)O[C@@]1([C@@H]2C(C)=C(O)C(=O)C3=C(C)[C@@H](OC(=O)[C@H](O)[C@@H](NC(=O)OC(C)(C)C)c4ccccc4)C[C@@](O)([C@H]2OC(=O)c2ccccc2)C3(C)C)CO[C@@H]1CCO` [5a, 13-[(2R, 3S)-3-phenyl-2-hydroxy-3-tert-butoxy-carbonylamino-propanoyl]-C-seco-10-deacetylbaccatine III], the IC50 in assay [1] was 1.9 nM; in assay [2] (Mus musculus), 35 ± 1.2 nM; in assay [3] (Homo sapiens, NCI/ADR-RES), 31.3 nM; in assay [4], 1.5 nM; in assay [5], 3.3 nM; in assay [6], 3.2 nM.

The values are drawn from patent US5756776A, “Semi-synthetic taxanes with anti-tumoural activity” (Indena S.p.A., priority 1994, dated 1998).
